One series relates to H9C2 cells. In words: Cell survival assay (Multitox-Fluor) under DNP metabolic stress. In kind it is cell-based, rat. Particulars: control (GFP-infected) H9C2 cells, DNP 10 mM, n=14. The method, then: H9C2 cells Rat embryonic heart H9c2 cells (ECACC, Salisbury, UK) were cultured in a tissue flask (at 5% CO2) containing Dulbecco's modified Eagle's medium supplemented with 10% fetal calf serum and 2 mM glutamine. For electrophysiological experiments, the cells were plated on a 35×10-mm culture dish containing 25-mm glass cover-slips. The cells were cultured in incubators (Galaxy, oxygen control model, RS Biotech, Irvine, UK). […] The recombinant SUR2A adenovirus (AV-SUR2A) was generated using the AdEasy XL Adenoviral Vector System (Stratagene). SUR2A gene was cloned into a shuttle vector pShuttle-CMV by PCR using the following primers containing restrict enzyme sites Bgl II/Xho I, sense, 5′-GCAGATCT GGCAGGCTGTTGGTAGCTCA-3′, antisense, 5′-GCCTCGAG CTACTTGTTGGTCATCACCA-3. […] The virus titer is determined using QuickTiter Adenovirus Titer Immunoassay Kit (Cell Biolabs, Inc) according to manufacturer's instructions. […]
The survival of H9C2 cells were assayed using Multitox-Fluor Multiplex Cytotoxicity Assay (Promega). […] Following 30 min-long incubation at 37° C., plates were measured using 1420 Multibabel Counter (Victor) plate reader, with excitation at 370 nm and emissions of 480 nm. The percentage of live cells was calculated based on the intensity of fluorescence according to the manufacturer instructions.

Another series deals with cardiomyocytes. In words: Intracellular Ca2+ (Fluo-3) in cardiomyocytes exposed to isoprenaline. Particulars: 100 μM, n=6. Format: cell-based, mouse. The source says: Ventricular cardiomyocytes were dissociated from the mouse using an established enzymatic procedure. Mitochondrial membrane potential was monitored in cells exposed to hypoxia as described. To measure the mitochondrial membrane potential cells were loaded with JC-1 according to the manufacturer's instructions (Invitrogen, Paisley, UK) and continously monitored with LSM-510. Fluorescence was imaged at 488 nm excitation wavelength and emission was captured at 530 and 590 nm for green and red channels respectively; the JC-1 ratio refers always to green/red ratio. The moment of cell death was defined as the point when the cell has become rounded (ratio of diameters<2). In addition to mitochondrial membrane potential, intracellular Ca^2+ levels were also measured using Fluo-3, Ca^2+-sensitive dye [described in 11-13].

In another series the test system is SUR2A mRNA. The series can be described thus: Real time RT-PCR of myocardial SUR2A mRNA in mice on nicotinamide-rich diet. Format: in vivo. Particulars: n=6. An excerpt: Real time RT-PCR Total RNA was extracted from cardiac ventricular tissue of transgenic and wild type mice using TRIZOL reagent (Invitrogen, Paisley, UK) according to the manufacturer's recommendations. Extracted RNA was further purified with RNeasy Mini Kit (Qiagen, Crawley, UK) according to the manufacturer's instruction. The specific primers for mouse SUR2A, Kir6.2, Kir6.1, SUR1 and SUR2B (designed to amplify SUR2B and natively present SUR2A) were designed as follows: For SUR2A: sense, […], antisense, […]; for Kir6.2: sense; […], antisense, […]; for Kir6.1: sense, 5′-[…]-3, antisense, 5-[…]-3′; for SUR1: sense, 5′-GGAAGGACTCACCACCATC-3′, antisense, 5′-GAGACCATCAAGGCGTAGG-3′; for SUR2B: sense, 5′-GATGCCACTGTCACCGAAG-3′, antisense, 5-[…]-3′. The real time RT-PCR was performed as described in ref. 14.
Nicotinamide was administered orally, i.e. as a dietary supplement. Mice were fed with nicotinamide-rich diet (ad libidum; 500 mg of nicotinamide per 1 kg of food) for 3 weeks. Estimated daily intake was 2.5 mg. For some in vitro experiments, cardiac cells were incubated for 24 hours in a DMEM medium containing 10% fetal calf serum, 2 mM glutamine and 20 mM NAD or NADH.
All experiments have been done on male mice. […] After the test, mice were sacrificed, hearts harvested and SUR2A mRNA levels measured. […]
In general terms: Quantitative PCR measures a nucleic acid by following its amplification.

The test system of another series is male mice. The series can be described thus: Treadmill endurance test. Format: in vivo. Particulars: one week, n=6. The method, then:
All experiments have been done on male mice. Mice were on RM1 ad libidum diet (SDS, UK) and RM1 diet supplemented with nicotinamide (0.1, 0.5, 2.5, 12.5 g of nicotinamide per kg of diet which would lead to daily intake of 0.04 mg of nicotinamide in control diet and 0.4 mg, 2 mg, 10 mg and 50 mg in nicotinamide-rich diets). All mice were of similar age and weight. Mice were on these diets for a week. To assess physical endurance in these mice, we have used treadmill endurance test. A six lane treadmill (Columbus Instruments, Columbus, Ohio) was used to perform treadmill tests. The exercise-induced stress protocol consisted of a step-wise increase in velocity at constant incline. Before the experiments, animals were acclimatized to the treadmill for 30 minutes; 10 minutes at 0 m/min, 10 minutes at 3 m/min followed by 10 minutes at 6 m/min two days prior to the treadmill endurance test. The treadmill endurance test consisted of a step-wise increase in velocity over time at constant incline. The animal was made to run at 3, 5, 8 (all at m/min) for 3 min intervals followed by 9, 10, 11, 12, 13, 14, 15 (all at m/min) for 5 min intervals and then at a constant velocity of 16 m/min until exhaustion. After the test, mice were sacrificed, hearts harvested and SUR2A mRNA levels measured. More specifically, total RNA was extracted from cardiac ventricular tissue of transgenic and wild type mice using TRIZOL reagent (Invitrogen, Paisley, UK) according to the manufacturer's recommendations. Extracted RNA was further purified with RNeasy Mini Kit (Qiagen, Crawley, UK) according to the manufacturer's instruction. The for mouse SUR2A were designed as follows: sense, […], antisense, […]. The reverse transcription (RT) reaction was carried out with ImProm-II Reverse Transcriptase (Promega, Southampton, UK). […] Efficiency is evaluated by the slope of the regression curve obtained with several dilutions of the cDNA template. […] Threshold cycle values, PCR efficiency (examined by serially diluting the template cDNA and performing PCR under these conditions) and PCR specificity (by constructing the melting curve) were determined by the same software. […] The relative expression ratio(R) of a gene encoding KATP channel subunit is calculated using equation R=(EK)^ΔCPk^(CD-ND)/(ER)^ΔCPR^(CD-ND) where EK is the real time PCR efficiency of SUR2A gene transcript, ER is the real time PCR efficiency of GAPDH gene, ΔCPK is the crossing point deviation of control diet-nicotinamide diet of SUR2A gene transcript while ΔCPR is the crossing point deviation of control diet-nicotinamide diet of GAPDH gene transcript.

For `O=[N+]([O-])c1ccc(O)c([N+](=O)[O-])c1` [DNP], the “cells that survived DNP” value in the series with H9C2 cells is on record as 43.3±1.8%.

Turning to `CC(C)NCC(O)c1ccc(O)c(O)c1` (stereo not drawn) [isoprenaline], the entries for the “relative fluo-3 fluorescence (calcium levels)” value in the series on cardiomyocytes (cardiomyocytes from transgenic SUR2A mice) and in the series with cardiomyocytes (cardiomyocytes from wild type mice) were 78±16.6 and 127.2±13.8, respectively.

Take `NC(=O)c1cccnc1` [nicotinamide]: the “threshold cycle, SUR2A mRNA in the heart” value with SUR2A mRNA (0.1 g/kg nicotinamide-rich diet, one week, after treadmill test) is given as 21.8±0.8. Moreover, the “threshold cycle, SUR2A mRNA in hearts” value in the series on SUR2A mRNA (nicotinamide-rich diet, 500 mg per 1 kg of food, 3 weeks, lower cycle = more mRNA) was 23.57±1.47. Moreover, the time on treadmill stood at 144.0 ± 14.9 min in the series on male mice (0.1 g/kg nicotinamide in diet), 95.3 ± 18.1 min in the series with male mice (0.5 g/kg nicotinamide in diet), 103.7 ± 20.4 min in the series with male mice (2.5 g/kg nicotinamide in diet) and 88.2 ± 12.5 min in the series with male mice (12.5 g/kg nicotinamide in diet).

These data come from patent publication US20110158947A1, “SULFONYLUREA RECEPTOR AND MEANS FOR TREATING ISCHAEMIA” (priority 2008, published 2011).
